# Patent US20190365745A1, “USE OF CHRONIC TREATMENT WITH ATR INHIBITORS TO SENSITIZE CANCER CELLS TO PARP INHIBITORS” (Cornell University, priority 2018, published 2019)
# Assays:
# Format in all cases: cell-based, Human
# U2OS cells = test: SILAC/MS proteomic analysis of nuclear proteins (protein abundance); conditions: U2OS nuclear proteome; 5 μM ATRi, 8 days vs untreated
# Protocol: FIG. 5A is a schematic diagram of the SILAC/MS experiment. FIG. 5B is a quadrant diagram of the SILAC/MS experiment. Each dot represents a different identified protein. Proteins with abundance reduced two-fold or more after ATRi treatment are shown in the upper-left corner (white quadrant). FIG. 5C is a WB analysis of U2OS cells after 8 days of chronic treatment with 5 μM of ATRi or ATMi. FIG. 5D is a time course WB analysis of U2OS cells during chronic treatment with 5 μM ATRi. FIG. 5E is a WB analysis of U2OS cells at distinct cell cycle stages. Cells were treated with 1 mM hydroxyurea (HU) or 50 ng/ml nocodazole (Noc) for 24 hours. HU treated cells were released for 2.5 hours in HU-free media. FIG. 5F is a WB analysis of U2OS cells untreated or treated for 8 days with 5 μM ATRi.
# For quantitative proteomic analysis, U2OS cells chronically treated with DMSO or ATR inhibitor were cultured, respectively, in “light” or “heavy” SILAC DMEM media (ThermoFisher Scientific 88425) supplemented with 10% dialyzed FBS and penicillin/streptomycin. “Light” SILAC media was supplemented with “light” (normal) arginine ^12C6, […], while “heavy” SILAC media contained “heavy” lysine ^13C6, ^15N2 and “heavy” arginine ^13C6, ^15N4. […] HILIC fractions were dried and reconstituted in 0.1% trifluoroacetic acid and analyzed using a Q-Exactive Orbitrap and Lumos mass spectrometer. […]
# [1] = test system: HCT116 colon cancer cell line; test: DR-GFP assay of HR-mediated repair; conditions: ATRi 8 days vs 2 days
# Protocol: (§1) FIGS. 14A-14B show WB analysis of hTERT RPE-1 (FIG. 14A) or HCT116 (colon cancer)(FIG. 14B) cells after 8 day chronic treatment with 5 μM ATRi or ATMi. […] FIGS. 14D-14E are bar graphs showing the analysis of HR-mediated repair using the DR-GFP system. Relative fold change of GFP positive hTERT RPE-1 (FIG. 14D) or HCT116 (FIG. 14E) cells over DMSO after ATRi treatment. (Error bars=SEM, N≥3, ****P-value<0.0001; one sample-t-test was used for the statistical analysis comparing 2 days versus 8 days of treatment).
# (§2) Human U2OS, HCT116, hTERT RPE-1, HEK293T, HeLa, U87, T98G, A2780, and human skin fibroblast cells (GM08398 and GM18366) were grown in DMEM media supplemented with 10% bovine calf serum, penicillin/streptomycin and non-essential amino acids. […]
# (§3) For the DR-GFP assay, cells (U2OS, HCT116, hTERT RPE-1, HEK293T, HeLa, U87, T98G, A2780, 293-T-REX-E2F6 cells and SV40 large T antigen transformed hTERT RPE-1) were transfected with the mCherry plasmid or DR-GFP reporter plasmid (pDR-GFP; addgene plasmid 26475) together with a plasmid coding for I-SceI (pCBASceI; addgene plasmid 26477) or DR-GFP reporter plasmid together with an empty plasmid pCAGGS. Two days after transfection, cells were trypsinized, resuspended in PBS and then analyzed by flow cytometry using FACSAria Fusion or Accuri C6 cytometer (BD). […]
# hTERT RPE-1 cells = test: DR-GFP assay of HR-mediated repair; conditions: ATRi 8 days vs 2 days
# Protocol: as §1, §2, §3
compound,measurement,setting,value
"CS(=O)(=O)c1ccc(-c2cnc(N)c(C(=O)Nc3ccccc3)n2)cc1 [ATRi, VE-821]","Abundance of proteins required for HR-mediated repair, including BRCA1 and FANCJ (SILAC/MS)",U2OS cells,reduced
same,"HR-mediated repair efficiency (DR-GFP), chronic vs short-term treatment",[1],significantly more severe than that of short-term treatment
same,"HR-mediated repair efficiency (DR-GFP), chronic vs short-term (2 day) treatment",hTERT RPE-1 cells,did not result in a striking drop in HR-mediated repair efficiency
